Biological target: T1, PfENT1 (Plasmodium falciparum, UniProt Q8IDM6)
T1 construct: expressed in transfected cells; host or cells: fui1Δ yeast (Saccharomyces cerevisiae), co-expressing GFP
Type: cell-based
Conditions: primary HTS, compounds at 10 μM, 125 μM 5-FUrd
Description: A yeast-based high throughput screening (HTS) assay was used to identify compounds that inhibit PfENT1. The compounds described in this application were identified by screening four commercially available, chemical compound libraries obtained from Dr. Donald Landry's laboratory (Department of Medicine, Columbia University). These libraries contain approximately 80,000 unique chemical entities.
In the primary screen the compounds were tested at a concentration of 10 μM. Hits were identified by the growth of fui1Δ yeast expressing PfENT1 and Green Fluorescent Protein (GFP) in the presence of the cytotoxic nucleoside 5-fluorouridine (5-FUrd). 5-FUrd is transported by PfENT1. PfENT1 expressing fui1Δ yeast will only grow in the presence of 125 μM 5-FUrd if a PfENT1 inhibitor blocks the uptake of 5-FUrd into the yeast. Significant yeast growth in the HTS in 384 well plates was determined by two criteria: 1) turbidity as determined by the optical density at 620 nm (OD620) and 2) GFP fluorescence intensity. […] Hits had to be positive by both criteria.

T1 sequence (Q8IDM6 whole entry): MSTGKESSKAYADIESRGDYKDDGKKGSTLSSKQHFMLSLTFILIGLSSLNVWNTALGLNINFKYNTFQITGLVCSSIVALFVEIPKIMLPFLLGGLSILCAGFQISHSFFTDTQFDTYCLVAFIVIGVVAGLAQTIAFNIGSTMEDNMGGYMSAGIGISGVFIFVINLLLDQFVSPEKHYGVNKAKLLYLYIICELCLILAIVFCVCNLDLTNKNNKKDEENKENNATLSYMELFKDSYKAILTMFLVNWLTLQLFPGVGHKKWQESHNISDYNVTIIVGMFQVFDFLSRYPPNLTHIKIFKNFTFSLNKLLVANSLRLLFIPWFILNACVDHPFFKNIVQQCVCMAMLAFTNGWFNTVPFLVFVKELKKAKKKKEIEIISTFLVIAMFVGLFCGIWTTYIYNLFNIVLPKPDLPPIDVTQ

Row | Compound | Avg Normalized % maximal activity
1 | Cc1ccccc1C(=O)Nc1ccc2c(C)cc(=O)oc2c1 [compound 28] | 13.98%
2 | COc1ccc(-c2nnc(OC)c3ccccc23)cc1 [compound 29, 1-methoxy-4-(4-methoxyphenyl) phthalazine] | 13.58%
3 | O=C(Nc1ccc(-c2nnc(-c3ccccc3)o2)cc1)c1ccco1 [compound 30, N-[4-(5-phenyl-1,3,4-oxadiazol-2-yl)phenyl]-2-furamide] | 13.43%
4 | CCOc1ccccc1NC(=O)c1cccc(NC(=O)c2ccco2)c1 [compound 31, N-(3-{[(2-ethoxyphenyl)amino]carbonyl}phenyl)-2-furamide] | 13.00%
5 | COc1ccc(Cl)cc1Nc1nnc(-c2cnccn2)s1 [compound 32, N-(5-chloro-2-methoxyphenyl)-5-(2-pyrazinyl)-1,3,4-thiadiazol-2-amine] | 12.03%
6 | COC(=O)c1ccccc1NC(=O)c1cccc(NC(=O)c2ccco2)c1C [compound 33, methyl 2-{[3-(2-furoylamino)-2-methylbenzoyl]amino}benzoate] | 11.98%
7 | Cc1c(/C=C/c2nc3ccccc3c(=O)[nH]2)c2ccccc2n1C [compound 34, 2-[2-(1,2-dimethyl-1H-indol-3-yl)vinyl]-4(3H)-quinazolinone] | 11.27%
8 | COc1cccc(C(=O)Nc2ccc(-c3nnc(-c4ccco4)o3)cc2)c1 [compound 35, N-{4-[5-(2-furyl)-1,3,4-oxadiazol-2-yl]phenyl}-3-methoxybenzamide] | 11.40%
9 | CCc1cccc(C)c1NS(=O)(=O)c1cccs1 [compound 36, N-(2-ethyl-6-methylphenyl)-2-thiophenesulfonamide] | 11.14%
10 | COc1ccc(C(=O)Nc2ccc(-c3nc4ncccc4o3)cc2C)cc1OC [compound 37, 3,4-dimethoxy-N-(2-methyl-4-[1,3]oxazolo [4,5-b]pyridin-2-ylphenyl)benzamide] | 10.61%
11 | C[C@@H]1C[C@@H](O[C@H]2[C@H](O[C@H]3CC[C@@]4(C)C(CC[C@]5(C)[C@@H]4CC=C4C6CC(C)(C)CC[C@]6(C(=O)O[C@@H]6O[C@H](CO[C@@H]7O[C@H](CO)[C@@H](O[C@@H]8O[C@@H](C)[C@H](O)[C@@H](O)[C@H]8O)[C@H](O)[C@H]7O)[C@@H](O)[C@H](O)[C@H]6O)CC[C@]45C)[C@]3(C)CO)OC[C@H](O)[C@@H]2O)[C@H](O)[C@H](O)[C@H]1O (stereo partly drawn) [compound 38] | 10.61%
12 | Cc1ccc2oc(-c3ccc(NC(=O)C4CCCO4)cc3)nc2c1 (stereo not drawn) [compound 39, N-[4-(5-methyl-1,3-benzoxazol-2-yl)phenyl]tetrahydro-2-furancarboxamide] | 10.52%
13 | CCOC(=O)c1cc(NC(=O)c2ccccc2F)ccc1N1CCOCC1 [compound 40, ethyl 5-[(2-fluorobenzoyl)amino]-2-(4-morpholinyl)benzoate] | 10.29%
14 | Cc1cc(-c2nc3ncccc3o2)ccc1NC(=O)c1ccco1 [compound 41, N-(2-methyl-4-[1,3]oxazolo[4,5-b]pyridin-2-ylphenyl)-2-furamide] | 10.28%
15 | O=C(Nc1ccc(-c2nnc(-c3ccccc3)o2)cc1)C1CCCO1 (stereo not drawn) [compound 42, N-[4-(5-phenyl-1,3,4-oxadiazol-2-yl)phenyl]tetrahydro-2-furancarboxamide] | 10.16%
16 | O=C(NC(=O)c1ccccc1)Nc1cc(N2CCOCC2)ncn1 [compound 43, N-({[6-(4-morpholinyl)-4-pyrimidinyl]amino}carbonyl) benzamide] | 9.52%
17 | Cc1cccc(C(=O)Nc2ccc(-c3nnc(-c4ccco4)o3)cc2)c1 [compound 44, N-{4-[5-(2-furyl)-1,3,4-oxadiazol-2-yl]phenyl}-3-methylbenzamide] | 9.07%
18 | O=C(CSc1nnc(-c2ccc(Cl)cc2Cl)o1)N1CCCCC1 [compound 45, 1-({[5-(2,4-dichlorophenyl)-1,3,4-oxadiazol-2-yl]thio}acetyl)piperidine] | 8.97%
19 | Cc1nnc(SCc2csc(-c3ccc4c(c3)OCO4)n2)s1 [compound 46, 2-({[2-(1,3-benzodioxol-5-yl)-1,3-thiazol-4-yl]methyl}thio)-5-methyl-1,3,4-thiadiazole] | 8.94%
20 | CCOCc1nnc(NC(=O)c2ccc(OC)cc2)s1 [compound 47] | 8.66%
21 | CCc1ccc(C(C)NC(=O)c2nc[nH]n2)cc1 (stereo not drawn) [compound 48, N-[1-(4-ethylphenyl)ethyl]-1H-1,2,4-triazole-3-carboxamide] | 8.44%
22 | O=C(Nc1ccc(-c2nc3ccccc3o2)cc1)C1CCCO1 (stereo not drawn) [compound 49, N-[4-(1,3-benzoxazol-2-yl)phenyl]tetrahydro-2-furancarboxamide] | 8.36%
23 | CCOc1ccc(N(CC(=O)N2CCN(C)CC2)S(C)(=O)=O)cc1 [compound 50] | 8.23%

Row | Compound | Avg Normalized % maximal activity
24 | CCOC(=O)c1cc(NC(=O)c2ccco2)ccc1N1CCOCC1 [compound 51, ethyl 5-(2-furoylamino)-2-morpholin-4-ylbenzoate] | 8.11%
25 | COC(=O)c1ccccc1NC(=O)c1cccc(NC(=O)C(C)C)c1 [compound 52] | 8.03%
26 | COCc1cc(C)nc2sc(C(=O)Nc3cccc(OC)c3)c(N)c12 [compound 53, 3-amino-4-(methoxymethyl)-N-(3-methoxyphenyl)-6-methylthieno [2,3-b]pyridine-2-carboxamide] | 7.94%
27 | COc1ccc(-c2cnc3ccccc3n2)cc1NC(=O)c1ccco1 [compound 54, N-[2-methoxy-5-(2-quinoxalinyl)phenyl]-2-furamide] | 7.83%
28 | Cc1cccn2c(=O)c3cc(C(=O)NC4CCCC4)sc3nc12 [compound 55, N-cyclopentyl-9-methyl-4-oxo-4H-pyrido[1,2-a]thieno[2,3-d] pyrimidine-2-carboxamide] | 7.75%
29 | O=C(CSc1nnc2ccc3ccccc3n12)Nc1ccccc1F [compound 56, N-(2-fluorophenyl)-2-([1,2,4]triazolo[4,3-a]quinolin-1-ylthio)acetamide] | 7.69%
30 | CCN(CC)C(=O)c1ccc(-c2ccc(N3CCOCC3)c3ccccc23)nn1 [compound 57] | 7.64%
31 | COc1ccc(-c2nc3ccccc3s2)cc1NC(=O)c1cccnc1 [compound 58, N-[5-(1,3-benzothiazol-2-yl)-2-methoxyphenyl] nicotinamide] | 7.63%
32 | Cn1nc(-c2ccc(C(=O)N3CCCCC3)cc2)c2ccccc2c1=O [compound 59, 2-methyl-4-[4-(1-piperidinylcarbonyl)phenyl]-1(2H)-phthalazinone] | 7.59%
33 | Cc1ccc2c(Cl)c(C(=O)Nc3cccnc3)sc2c1 [compound 60, 3-chloro-6-methyl-N-3-pyridinyl-1-benzothiophene-2-carboxamide] | 7.53%
34 | CC1(C)CC(=O)c2sc(NC(=O)c3ccccc3F)nc2C1 [compound 61, N-(5,5-dimethyl-7-oxo-4,5,6,7-tetrahydro-1,3-benzothiazol-2-yl)-2-fluorobenzamide] | 7.27%
35 | O=C(Cc1cccc2ccccc12)Nc1nncs1 [compound 62, 2-(1-naphthyl)-N-1,3,4-thiadiazol-2-ylacetamide] | 7.27%
36 | COc1ccc(OC)c(Nc2nc(=O)c3cccnc3s2)c1 [compound 63, 2-[(2,5-dimethoxyphenyl)amino]-4H-pyrido[3,2-e][1,3] thiazin-4-one] | 7.19%
37 | CCOc1cc(-c2noc(CCCC(=O)N3CCCCC3)n2)ccc1OC [compound 64, 1-{4-[3-(3-ethoxy-4-methoxyphenyl)-1,2,4-oxadiazol-5-yl]butanoyl}piperidine] | 7.14%
38 | Cc1ccnc(NC(=O)c2cccc(NC(=O)c3ccco3)c2)c1 [compound 65, N-(3-{[(4-methyl-2-pyridinyl)amino]carbonyl}phenyl)-2-furamide] | 7.09%
39 | CCC(=O)c1ccc(/C=C/c2nc3ccccc3n2C)o1 [compound 66, 1-{5-[2-(1-methyl-1H-benzimidazol-2-yl)vinyl]-2-furyl}-1-propanone] | 7.04%
40 | COc1ccc(-c2cc3ccccc3oc2=O)cc1NC(=O)c1cccs1 [compound 67, N-[2-methoxy-5-(2-oxo-2H-chromen-3-yl)phenyl]-2-thiophenecarboxamide] | 6.98%
41 | CC(C)(C)c1nnc(NC(=O)c2cccc(Cl)c2)s1 [compound 68] | 6.79%
42 | COc1ccccc1CN1CCN(Cc2ccccn2)CC1 [compound 69, 1-(2-methoxybenzyl)-4-(2-pyridinylmethyl) piperazine] | 6.74%
43 | O=C(Nc1ccc(C(=O)N2CCCCC2)cc1)c1cc2ccccc2oc1=O [compound 70, 2-oxo-N-[4-(1-piperidinylcarbonyl)phenyl]-2H-chromene-3-carboxamide] | 6.71%
44 | O=C(CCCN1C(=O)c2cccc3cccc(c23)C1=O)N1CCCCC1 [compound 71, 2-[4-oxo-4-(1-piperidinyl)butyl]-1H-benzo[de]isoquinoline-1,3(2H)-dione] | 6.67%
45 | COc1cc2c(cc1OC)-c1cc3ccc(OC)c(OC)c3c[n+]1CC2 [compound 72] | 6.56%

Reference: US9695193B2, “Inhibitors of Plasmodium falciparum equilibrative nucleoside transporter type I as anti-parasitic compounds” (The Trustees of Columbia University in the City of New York, priority 2013, dated 2017)
